Values after ≈ are worked out from the molar mass of the structure shown.
How the values were obtained:
[1] = Hemolysis assay with human erythrocytes; format: cell-based; conditions: human erythrocyte suspension, PBS pH 7.4, mean ± SD; for hemolysis at 10 µg/mL: compound at 10 µg/mL; for hemolysis at 80 µg/mL: compound at 80 µg/mL
Experimental: Human blood samples were obtained from the Banc de Sang i Teixits de Barcelona (Spain) from the Catalan Department of Health. Blood was deposited in tubes with the anticoagulant EDTA-K3. Blood samples were centrifuged at 3000 rpm at 4 °C for 10 min (Megafuge 2.0 R. Heraeus Instruments, Hanau, Germany) to induce sedimentation. Plasma was extracted with a Pasteur pipette. Next, the residual pellet was washed with PBS at pH 7.4. This procedure was repeated three times to remove residual leukocytes and platelets and to concentrate the erythrocytes. Following the last wash, the erythrocyte suspension was diluted (1:1) in PBS at pH 7.4 to obtain a suitable erythrocyte suspension (cell density of 8 × 10^9 cell/mL).
The hemolysis assay determined the capability of the different compounds to induce hemolysis of the erythrocyte membrane. Stock solutions of each compound at 1 mg/mL in PBS at pH 7.4 were prepared. Different volumes (10–80 µL) were placed in polystyrene tubes, and an aliquot of 25 µL of the erythrocyte suspensions was added to each tube. The final volume was 1 mL. The tubes were incubated at room temperature under rotatory conditions. Next, the tubes were centrifuged at 10,000 rpm for 5 min. The supernatants’ absorbance at 540 nm (Shimadzu UV-160A, Shimadzu, Duisburg, Germany) was compared with that of the control samples hemolyzed with distilled water (positive control). The negative control was obtained by incubating an aliquot of 25 µL of the erythrocyte suspension with PBS at pH 7.4.
The degree of hemolysis was determined with the following equation:Hemolysis (%) = 100 × (Abs − Ab0)/(Abs100 − Abs0) where Abs, Abs0 and Abs100 are the absorbance of test samples, of the suspension treated with isotonic physiological buffer saline (PBS) and of the suspension of complete hemolysis treated with distilled water, respectively.

HaCaT cells [2] = assay: Cell viability, MTT assay, HaCaT; format: cell-based; conditions: Homo sapiens, 24 h, MTT endpoint, 10–250 µg/mL tested
Experimental: (§1) The immortal human keratinocyte (HaCaT) and the squamous cell carcinoma (A431) cell lines were obtained from Celltec UB. Cells were grown in DMEM medium (4.5 g/L glucose) supplemented with 10% (v/v) FBS, 2 mM L-glutamine, 100 U/mL penicillin and 100 µg/mL streptomycin at 37 °C, 5% CO2. Cells were routinely cultured in 75 cm^2 culture flasks and were trypsinized using trypsin–EDTA when the cells reached approximately 80% confluence. The trypan blue assay, which allows a direct identification and enumeration of live (unstained) and dead (blue) cells in a given population, was used to evaluate the viability of the cells in the cell suspension obtained.
(§2) HaCaT cells (1 × 10^5 cells/mL) and A431 cells (5 × 10^4 cells/mL) were grown at the defined densities in the 60 central wells of a 96-well plate. Cells were incubated for 24 h in 5% CO2 at 37 °C. Then, the spent medium was removed, and cells were incubated for 24 h with the corresponding compound solutions (1 mg/mL) previously diluted in the minimum amount of DMF (dimethylformamide) and then in DMEM medium supplemented with 5% FBS (100 µL) at the required concentration range (10–250 µg/mL). The viability of the cells upon incubation with the β-lactam derivatives was assayed using 2 different endpoints: NRU and MTT.
(§3) Only living cells can reduce the yellow tetrazolium salt 3-(4,5-dimethyl-2-thiazolyl)-2,5-diphenyltetrazolium bromide (MTT) to insoluble purple formazan crystals. After 24 h of incubation of the cells with the corresponding NPs, the medium was removed, and 100 µL of MTT (Sigma-Aldrich, St. Louis, United States) in PBS (5 mg/mL) diluted 1:10 in culture medium without phenol red and without FBS (Lonza, Verviers, Belgium) was added to the cells. After 3 h of incubation, the medium was removed. Thereafter, 100 µL of DMSO (Sigma-Aldrich, St. Louis, MO, USA) was added to each well to dissolve the purple formazan crystals. Agitation and determination of the absorbance of the extracted solution were performed under the same conditions, as described in Section 3.4.1. Finally, the effect of each treatment was calculated as the percentage of tetrazolium salt reduction by viable cells relative to the control cells (cells without any treatment).
(§4) The corresponding half-maximal inhibitory concentration (IC50) values for the different formulations as a function of cell line and endpoint were determined from the fitting of concentration-dependent viability curves.

HaCaT cells [3] = assay: Cell viability, NRU assay, HaCaT; format: cell-based, human; conditions: 24 h, NRU endpoint, 10–250 µg/mL tested; for IC50: Homo sapiens
Experimental: as §1, §2
(§5) The neutral red uptake (NRU) assay is based on the accumulation of the dye in the lysosomes of viable cells. After the cells were incubated for 24 h with the corresponding systems, the medium was removed, and the solutions were incubated with the NR dye (Sigma-Aldrich, St. Louis, MO, USA) solution (50 µg/mL) dissolved in the medium without FBS and without phenol red (Lonza, Verviers, Belgium) for 3 h. Cells were then washed with sterile PBS, followed by the addition of 100 µL of a solution containing 50% absolute ethanol and 1% acetic acid in distilled water to extract the dye. To promote total dissolution of the dye, plates were placed in a microtiter-plate shaker for 5 min at room temperature. The absorbance of the resulting solutions was measured at 550 nm (Bio-Rad 550 microplate reader, Bio-Rad California, Hercules, CA, USA). Finally, the effect of each treatment was calculated as the percentage of dye uptake by viable cells relative to the control cells (cells without any treatment).
as §4

A431 cells [4] = assay: Cell viability, MTT assay, A431; format: cell-based, human; conditions: for IC50: Homo sapiens, A-431, 24 h, A431, 24 h, MTT endpoint, 10–250 µg/mL tested; for SI MTT: SI = IC50 HaCaT / IC50 A431, MTT endpoint
Experimental: as §1, §2, §3, §4
(§6) The corresponding selectivity indexes toward tumoral cells were calculated as the following ratio:SI = IC50 (non-tumoral cell line)/IC50 (tumoral cell line) where HaCaT keratinocytes were used as close representatives of a skin model cell line under non-tumoral conditions.

A431 cells [5] = assay: Cell viability, NRU assay, A431; format: cell-based, human; conditions: for IC50: Homo sapiens, A-431, 24 h, A431, 24 h, NRU endpoint, 10–250 µg/mL tested; for SI NRU: SI = IC50 HaCaT / IC50 A431, NRU endpoint
Experimental: as §1, §2, §5, §4, §6

HaCaT cells [6] = assay: Cell viability, HaCaT, MTT and NRU endpoints taken together; format: cell-based; conditions: Homo sapiens, 24 h, span over or independent of endpoint method
Experimental: as §1, §2
as §5, with “Cells were then washed with sterile PBS, followed by the addition of 100 µL of a solution containing 50% absolute ethanol and 1% acetic acid in distilled water to extract the dye. To promote total dissolution of the dye, plates were placed in a microtiter-plate shaker for 5 min at room temperature.” left out
Only living cells can reduce the yellow tetrazolium salt 3-(4,5-dimethyl-2-thiazolyl)-2,5-diphenyltetrazolium bromide (MTT) to insoluble purple formazan crystals. […] Agitation and determination of the absorbance of the extracted solution were performed under the same conditions, as described in Section 3.4.1. Finally, the effect of each treatment was calculated as the percentage of tetrazolium salt reduction by viable cells relative to the control cells (cells without any treatment).
as §4

A431 cells [7] = assay: Cell viability, A431, MTT and NRU endpoints taken together; format: cell-based; conditions: Homo sapiens, A-431; A431, 24 h, span over or independent of endpoint method
Experimental: as §1, §2, §5, §3, §4

[8] = Cell viability-screening assays (MTT and NRU), both cell lines; format: cell-based, human; conditions: human, HaCaT keratinocytes and A431 squamous cell carcinoma cells; HaCaT and A431, MTT and NRU, 24 h, 10–250 µg/mL; as a function of cell type and endpoint method; read-out: percentage viability compared to control cells
Experimental: as §1, §2, §5, §3

HaCaT and A431 cells = assay: as above; format: cell-based, human; conditions: regardless of the concentration range
Experimental: as §1, §2, §5, §3

[9] = test system: human MCF-7 breast cancer cells; parameters: method as in PMID 21397510; conditions: cited from earlier work
[10] = human, pH 7.4, human RBC suspension

Structure (SMILES) | hemolysis at 10 µg/mL ([1]; human RBC suspension) [%] | hemolysis at 80 µg/mL ([1]; human RBC suspension) [%] | IC50 (HaCaT cells [2]) [µg/mL] | IC50 (HaCaT cells [3]) [µg/mL] | IC50 (A431 cells [4]) [µg/mL] | SI MTT (A431 cells [4]) | IC50 (A431 cells [5]) [µg/mL] | SI NRU (A431 cells [5]) | IC50 (HaCaT cells [6]) [µg/mL] | IC50 (A431 cells [7]) [µg/mL] | viability at 24 h [8] [%] | hemolysis at 10 µg/mL [1, 10] [%] | hemolysis at 80 µg/mL [1, 10] [%] | selectivity against the cell type (HaCaT vs A431 cytotoxicity) (HaCaT and A431 cells) | IC50 HaCaT NRU (HaCaT cells [3]) [µg/mL] | IC50 [9] [nM]
CC(C)(C)N1C(=O)C(Cl)(Cl)C1c1ccccc1 (centres unmarked) [2b] | 0.01 ± 0.01 | 2.5 ± 0.97 | 19.8 (≈ 72.8 µM) | 48.3 (≈ 177 µM) | 46.9 (≈ 172 µM) | 0.42 | 29.5 (≈ 109 µM) | 1.63 | 20 to 49 (≈ 73.5 to 180 µM) | 30 to 47 (≈ 110 to 173 µM) | < 20 | – | – | – | – | –
Cc1ccccc1C1N(C(C)(C)C)C(=O)C1(Cl)Cl (centres unmarked) [2c] | – | – | ~250 (≈ 874 µM) | > 250 | ~250 (≈ 874 µM) | 1.0 | > 250 | >1.0 | – | – | ≤ 50 | 0.01 ± 0.01 | 0.01 ± 0.01 | – | – | –
Cc1ccc(C2N(C(C)(C)C)C(=O)C2(Cl)Cl)cc1 (centres unmarked) [2e] | – | – | 92.6 (≈ 324 µM) | 78.8 (≈ 275 µM) | 180 (≈ 629 µM) | 0.51 | 121 (≈ 422 µM) | 0.65 | 78 to 93 (≈ 273 to 325 µM) | 120 to 180 (≈ 419 to 629 µM) | < 20 | 0.01 ± 0.01 | 0.2 ± 0.23 | higher cytotoxicity in HaCaT cells than in A431 cells | – | –
CC(C)(C)N1C(=O)C(Cl)(Cl)C1c1cc(F)cc(F)c1 (centres unmarked) [2h] | – | – | > 250 | > 250 | 250 (≈ 811 µM) | >1.0 | 250 (≈ 811 µM) | >1.0 | > 250 | ~250 (≈ 811 µM) | ≤ 50 | 0.05 ± 0.05 | 0.12 ± 0.09 | the opposite results | – | –
CC(C)N1C(=O)C(Cl)(Cl)C1c1ccccc1 (centres unmarked) [2j] | – | – | 42.1 (≈ 163 µM) | 40.1 (≈ 155 µM) | 76.2 (≈ 295 µM) | 0.55 | 37.9 (≈ 147 µM) | 1.06 | 40 to 42 (≈ 155 to 163 µM) | 38 to 76 (≈ 147 to 294 µM) | < 20 | 0.01 ± 0.01 | 0.02 ± 0.02 | – | – | –
O=C1N(C2CCCCC2)C(c2ccccc2)C1(Cl)Cl (centres unmarked) [2k] | – | – | > 250 | ~220 (≈ 738 µM) | 250 (≈ 838 µM) | >1.0 | 220 (≈ 738 µM) | >1.13 | – | > 250 | < 20 | ~0.25 | 0.3 ± 0.21 | – | >250 | –
COc1ccc([C@@H]2[C@@H](c3ccsc3)C(=O)N2c2cc(OC)c(OC)c(OC)c2)cc1O [II] | – | – | – | – | – | – | – | – | – | – | – | – | – | – | – | 10
COc1ccc([C@@H]2[C@@H](c3cccs3)C(=O)N2c2cc(OC)c(OC)c(OC)c2)cc1O [I] | – | – | – | – | – | – | – | – | – | – | – | – | – | – | – | 7
